# Laboratory results as given in the supplement of paper PMC11208160.
# Assay: recombinant UMI read abundance after kanamycin selection (control-corrected) (log10(CPM+1)); higher = more efficient recombination; extreme values may be limits of the assay; sequences stand for … in AGTGCAGAGAAAATCGGCCAGTTTTCTCTGCCTGCAGTCCGCATGCCGTGGGACCCCTTGGGTTCTAACCTGTTGCCTAGATTTATGCAGCGGACTGCCTTTCTCCCAAAGTGATAAACCGG…AGGTTGGTTTCACT; site = the 11-nt donor
# Outline: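 Values are reported as log10(CPM+1), obtained by converting sequencing counts to CPM, averaging replicates and scaling by control-derived factors. The counts came from recombinant UMIs amplified by PCR across the donor–target junction. These UMIs came from a pooled Escherichia coli screen of donor and donor-binding-loop pairs for the IS621 bridge recombinase, plated with IPTG (0.07 mM) plus kanamycin or left unselected, in two replicates each.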
# 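Note: IS621 bridge recombinase in Escherichia coli cells against a fixed T5 target plasmid.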
row,Sequence,recombinant UMI read abundance (log10)
1,GCAGATTCATGGACCGGTTTTCCCGGTAATCCGTATTTGTT (site GGAGATTCTAA),0
2,GCAGATTCATGGACCGGTTTTCCCGGTAATCCGTATTTGTT (site GTAGATTCTAA),0.308
3,GCAGGCCCATGGACCGGTTTTCCCGGTAATCCGTATTTGCT (site GCAGGCCCTAG),0.921
4,GCAGGCGCATGGACCGGTTTTCCCGGTAATCCGTATTTGGT (site GCAGGCGCTAC),0.864
5,GCAGGTGCATGGACCGGTTTTCCCGGTAATCCGTATTTGAT (site ACAGGTGCTAT),2.52
6,GCAGGTGCATGGACCGGTTTTCCCGGTAATCCGTATTTGAT (site CCAGGTGCTAT),1.91
7,GCAGGTGCATGGACCGGTTTTCCCGGTAATCCGTATTTGAT (site GCAGGTGCTAT),2.1
8,GCAGGTGCATGGACCGGTTTTCCCGGTAATCCGTATTTGAT (site TCAGGTGCTAT),1.52
9,GCAGTATCATGGACCGGTTTTCCCGGTAATCCGTATTTGCA (site ACAGTATCTTG),2.95
10,GCAGTATCATGGACCGGTTTTCCCGGTAATCCGTATTTGCA (site CCAGTATCTTG),2.09
11,GCAGTATCATGGACCGGTTTTCCCGGTAATCCGTATTTGCA (site GCAGTATCTTG),2.68
12,GCAGTATCATGGACCGGTTTTCCCGGTAATCCGTATTTGCA (site TCAGTATCTTG),1.87
13,GCAGTATCATGGACCGGTTTTCCCGGTAATCCGTATTTGGA (site ACAGTATCTTG),0.785
14,GCAGTATCATGGACCGGTTTTCCCGGTAATCCGTATTTGGA (site GCAGTATCTTC),2.1
15,GCATCGACATGGACCGGTTTTCCCGGTAATCCGTATTTGCA (site GCATCGACTTG),2.56
16,GCATCTACATGGACCGGTTTTCCCGGTAATCCGTATTTGTG (site ACATCTACTCA),0.6
17,GCATCTACATGGACCGGTTTTCCCGGTAATCCGTATTTGTG (site CCATCTACTCA),0.104
18,GCATCTACATGGACCGGTTTTCCCGGTAATCCGTATTTGTG (site GCATCTACTCA),0.968
19,GCATCTACATGGACCGGTTTTCCCGGTAATCCGTATTTGTG (site TCATCTACTCA),1.87

row,Sequence,recombinant UMI read abundance (log10)
1,GCATGCACATGGACCGGTTTTCCCGGTAATCCGTATTTGTA (site GAATGCACTTA),0.245
2,GCATGCACATGGACCGGTTTTCCCGGTAATCCGTATTTGTA (site GCATGCACTTA),2.41
3,GCATGCACATGGACCGGTTTTCCCGGTAATCCGTATTTGTA (site GGATGCACTTA),0.364
4,GCATGCACATGGACCGGTTTTCCCGGTAATCCGTATTTGTA (site GTATGCACTTA),1.01
5,GCATGCGCATGGACCGGTTTTCCCGGTAATCCGTATTTGTT (site GCATGCGCTAA),1.82
6,GCATTGTCATGGACCGGTTTTCCCGGTAATCCGTATTTGCA (site GCATTGTCTTG),2.76
7,GCCAAAACATGGACCGGTTTTCCCGGTAATCCGTATTTGCT (site GCAAAAACTAG),1.08
8,GCCAAAACATGGACCGGTTTTCCCGGTAATCCGTATTTGCT (site GCCAAAACTAG),1
9,GCCAAAACATGGACCGGTTTTCCCGGTAATCCGTATTTGCT (site GCGAAAACTAG),0
10,GCCAAAACATGGACCGGTTTTCCCGGTAATCCGTATTTGCT (site GCTAAAACTAG),0
11,GCCAAACCATGGACCGGTTTTCCCGGTAATCCGTATTTGGT (site GACAAACCTAC),0
12,GCCAAACCATGGACCGGTTTTCCCGGTAATCCGTATTTGGT (site GCCAAACCTAC),0
13,GCCAAACCATGGACCGGTTTTCCCGGTAATCCGTATTTGGT (site GGCAAACCTAC),0.0048
14,GCCAAACCATGGACCGGTTTTCCCGGTAATCCGTATTTGGT (site GTCAAACCTAC),0
15,GCCAACACATGGACCGGTTTTCCCGGTAATCCGTATTTGAT (site GCCAACACTAT),1.9
16,GCCAAGCCATGGACCGGTTTTCCCGGTAATCCGTATTTGGG (site GCAAAGCCTCC),0.00342
17,GCCAAGCCATGGACCGGTTTTCCCGGTAATCCGTATTTGGG (site GCCAAGCCTCC),0.0135
18,GCCAAGCCATGGACCGGTTTTCCCGGTAATCCGTATTTGGG (site GCGAAGCCTCC),0
19,GCCAAGCCATGGACCGGTTTTCCCGGTAATCCGTATTTGGG (site GCTAAGCCTCC),0

row,Sequence,recombinant UMI read abundance (log10)
1,GCCAATCCATGGACCGGTTTTCCCGGTAATCCGTATTTGAA (site GACAATCCTTT),0.01
2,GCCAATCCATGGACCGGTTTTCCCGGTAATCCGTATTTGAA (site GCCAATCCTTT),0.53
3,GCCAATCCATGGACCGGTTTTCCCGGTAATCCGTATTTGAA (site GGCAATCCTTT),0
4,GCCAATCCATGGACCGGTTTTCCCGGTAATCCGTATTTGAA (site GTCAATCCTTT),0.00267
5,GCCACAGCATGGACCGGTTTTCCCGGTAATCCGTATTTGTT (site GCCACAGCTAA),1.48
6,GCCACCCCATGGACCGGTTTTCCCGGTAATCCGTATTTGTA (site GCCACACCTTA),0.0331
7,GCCACCCCATGGACCGGTTTTCCCGGTAATCCGTATTTGTA (site GCCACCCCTTA),0
8,GCCACCCCATGGACCGGTTTTCCCGGTAATCCGTATTTGTA (site GCCACGCCTTA),0
9,GCCACCCCATGGACCGGTTTTCCCGGTAATCCGTATTTGTA (site GCCACTCCTTA),0.0101
10,GCCACCGCATGGACCGGTTTTCCCGGTAATCCGTATTTGCG (site ACCACCGCTCG),0.439
11,GCCACCGCATGGACCGGTTTTCCCGGTAATCCGTATTTGCG (site CCCACCGCTCG),0.0179
12,GCCACCGCATGGACCGGTTTTCCCGGTAATCCGTATTTGCG (site GCCACCGCTCG),0.939
13,GCCACCGCATGGACCGGTTTTCCCGGTAATCCGTATTTGCG (site TCCACCGCTCG),0.00586
14,GCCACGCCATGGACCGGTTTTCCCGGTAATCCGTATTTGTT (site GCCACGCCTAA),0.0554
15,GCCACGCCATGGACCGGTTTTCCCGGTAATCCGTATTTGTT (site GCCACGCCTCA),0.0173
16,GCCACGCCATGGACCGGTTTTCCCGGTAATCCGTATTTGTT (site GCCACGCCTGA),0
17,GCCACGCCATGGACCGGTTTTCCCGGTAATCCGTATTTGTT (site GCCACGCCTTA),0.00385
18,GCCACGTCATGGACCGGTTTTCCCGGTAATCCGTATTTGTA (site GCCACGACTTA),0.0796
19,GCCACGTCATGGACCGGTTTTCCCGGTAATCCGTATTTGTA (site GCCACGCCTTA),0.0201
